Experiments:
[1] = tested on: T1, Receptor-type tyrosine-protein kinase FLT3 (Homo sapiens), P36888 [D835Y]; details: Compound concentration 1000.0 nM
T1 sequence (whole entry): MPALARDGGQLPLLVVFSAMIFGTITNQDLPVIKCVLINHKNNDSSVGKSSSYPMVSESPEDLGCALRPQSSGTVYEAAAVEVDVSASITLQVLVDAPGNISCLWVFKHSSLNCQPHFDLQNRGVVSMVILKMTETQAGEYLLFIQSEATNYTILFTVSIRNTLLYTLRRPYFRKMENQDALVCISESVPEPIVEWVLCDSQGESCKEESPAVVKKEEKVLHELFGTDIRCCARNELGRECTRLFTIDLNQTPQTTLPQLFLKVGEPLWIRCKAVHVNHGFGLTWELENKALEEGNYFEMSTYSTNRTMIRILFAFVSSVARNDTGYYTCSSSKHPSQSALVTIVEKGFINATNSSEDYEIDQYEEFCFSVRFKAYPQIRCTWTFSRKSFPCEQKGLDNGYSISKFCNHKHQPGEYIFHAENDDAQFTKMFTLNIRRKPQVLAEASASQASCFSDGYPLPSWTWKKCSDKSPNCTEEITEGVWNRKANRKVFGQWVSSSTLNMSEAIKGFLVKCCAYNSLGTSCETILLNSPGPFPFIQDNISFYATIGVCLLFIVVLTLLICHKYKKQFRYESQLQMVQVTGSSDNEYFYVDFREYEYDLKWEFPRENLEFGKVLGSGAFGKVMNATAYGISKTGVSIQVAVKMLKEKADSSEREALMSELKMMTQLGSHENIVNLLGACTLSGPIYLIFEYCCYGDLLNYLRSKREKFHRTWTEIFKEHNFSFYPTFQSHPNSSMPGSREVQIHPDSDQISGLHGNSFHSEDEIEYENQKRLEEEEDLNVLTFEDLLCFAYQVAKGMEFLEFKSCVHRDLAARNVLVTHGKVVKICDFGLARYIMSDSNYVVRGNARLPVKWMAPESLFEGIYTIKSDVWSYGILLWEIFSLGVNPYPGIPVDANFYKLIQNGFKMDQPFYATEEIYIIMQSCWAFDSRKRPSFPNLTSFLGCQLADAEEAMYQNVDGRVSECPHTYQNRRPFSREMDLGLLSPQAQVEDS

[2] = molecular target: 5-hydroxytryptamine receptor 1D (Homo sapiens) (UniProt P28221); experiment: 5HT1D/H AG Cerep selectivity data (BI); details: filed as agonist, Compound concentration 20.0 uM
Sequence of 5-hydroxytryptamine receptor 1D (Homo sapiens) (P28221 whole entry): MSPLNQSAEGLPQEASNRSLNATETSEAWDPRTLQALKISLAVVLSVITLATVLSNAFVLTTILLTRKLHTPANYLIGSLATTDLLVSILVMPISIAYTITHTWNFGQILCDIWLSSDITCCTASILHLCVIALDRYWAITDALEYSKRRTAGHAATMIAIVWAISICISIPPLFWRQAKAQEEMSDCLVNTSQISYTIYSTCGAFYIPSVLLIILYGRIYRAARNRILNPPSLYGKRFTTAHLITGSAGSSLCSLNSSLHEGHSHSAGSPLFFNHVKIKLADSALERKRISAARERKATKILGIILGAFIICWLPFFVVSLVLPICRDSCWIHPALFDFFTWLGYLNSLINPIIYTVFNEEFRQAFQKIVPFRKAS

[3] = molecular target: Serine/threonine-protein kinase MRCK beta (Homo sapiens) (UniProt Q9Y5S2); experiment: CDC42 BPB Invitrogen selectivity data (BI); details: Compound concentration 3.0 uM
Sequence of Serine/threonine-protein kinase MRCK beta (Homo sapiens) (Q9Y5S2 whole entry, the tested form may be a part): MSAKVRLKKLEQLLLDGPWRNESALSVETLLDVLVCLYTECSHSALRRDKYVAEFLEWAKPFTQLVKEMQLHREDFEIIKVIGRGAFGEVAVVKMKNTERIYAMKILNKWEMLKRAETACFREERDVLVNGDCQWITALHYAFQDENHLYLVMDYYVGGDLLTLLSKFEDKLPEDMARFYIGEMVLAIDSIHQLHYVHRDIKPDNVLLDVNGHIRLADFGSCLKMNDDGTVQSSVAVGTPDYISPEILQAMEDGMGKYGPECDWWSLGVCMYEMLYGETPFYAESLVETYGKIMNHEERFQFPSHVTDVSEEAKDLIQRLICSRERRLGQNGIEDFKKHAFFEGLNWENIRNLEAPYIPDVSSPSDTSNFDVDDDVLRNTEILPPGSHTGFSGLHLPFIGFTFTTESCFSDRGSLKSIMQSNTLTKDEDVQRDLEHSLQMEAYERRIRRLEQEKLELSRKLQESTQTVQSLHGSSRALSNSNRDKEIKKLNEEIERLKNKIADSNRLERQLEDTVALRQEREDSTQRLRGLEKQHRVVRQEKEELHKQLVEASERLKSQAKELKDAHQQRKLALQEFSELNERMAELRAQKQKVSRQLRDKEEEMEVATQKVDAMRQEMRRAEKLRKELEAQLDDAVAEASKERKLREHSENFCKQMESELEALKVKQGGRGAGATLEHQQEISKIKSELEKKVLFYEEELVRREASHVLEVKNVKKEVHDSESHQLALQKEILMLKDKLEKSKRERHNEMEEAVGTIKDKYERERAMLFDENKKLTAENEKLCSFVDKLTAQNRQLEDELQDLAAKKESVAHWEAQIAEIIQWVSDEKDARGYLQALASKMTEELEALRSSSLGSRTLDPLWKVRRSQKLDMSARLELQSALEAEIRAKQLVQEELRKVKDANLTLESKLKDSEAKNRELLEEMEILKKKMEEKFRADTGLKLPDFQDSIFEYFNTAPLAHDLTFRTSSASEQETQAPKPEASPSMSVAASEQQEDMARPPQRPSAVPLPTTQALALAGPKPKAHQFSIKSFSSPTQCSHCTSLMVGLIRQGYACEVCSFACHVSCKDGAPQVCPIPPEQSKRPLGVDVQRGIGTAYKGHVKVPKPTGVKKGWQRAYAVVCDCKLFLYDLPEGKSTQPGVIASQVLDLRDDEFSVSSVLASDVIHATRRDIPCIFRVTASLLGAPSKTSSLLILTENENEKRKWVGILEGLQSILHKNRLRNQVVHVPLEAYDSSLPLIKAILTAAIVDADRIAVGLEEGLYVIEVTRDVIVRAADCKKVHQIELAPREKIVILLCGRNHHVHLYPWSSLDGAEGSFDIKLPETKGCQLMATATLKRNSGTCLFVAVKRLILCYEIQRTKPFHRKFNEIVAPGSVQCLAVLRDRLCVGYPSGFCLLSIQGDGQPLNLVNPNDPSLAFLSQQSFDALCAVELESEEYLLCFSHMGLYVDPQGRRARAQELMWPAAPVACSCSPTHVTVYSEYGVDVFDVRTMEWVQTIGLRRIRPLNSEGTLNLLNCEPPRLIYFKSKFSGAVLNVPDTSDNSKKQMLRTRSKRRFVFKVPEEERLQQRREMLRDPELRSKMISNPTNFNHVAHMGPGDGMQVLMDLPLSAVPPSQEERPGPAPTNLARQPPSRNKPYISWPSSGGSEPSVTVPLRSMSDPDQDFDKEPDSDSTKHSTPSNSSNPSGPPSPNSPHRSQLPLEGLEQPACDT

[4] = molecular target: T2, Discoidin domain-containing receptor 2 (Homo sapiens) (UniProt Q16832); experiment: DDR2 Invitrogen selectivity data (BI); details: Compound concentration 3.0 uM
T2 sequence (whole entry): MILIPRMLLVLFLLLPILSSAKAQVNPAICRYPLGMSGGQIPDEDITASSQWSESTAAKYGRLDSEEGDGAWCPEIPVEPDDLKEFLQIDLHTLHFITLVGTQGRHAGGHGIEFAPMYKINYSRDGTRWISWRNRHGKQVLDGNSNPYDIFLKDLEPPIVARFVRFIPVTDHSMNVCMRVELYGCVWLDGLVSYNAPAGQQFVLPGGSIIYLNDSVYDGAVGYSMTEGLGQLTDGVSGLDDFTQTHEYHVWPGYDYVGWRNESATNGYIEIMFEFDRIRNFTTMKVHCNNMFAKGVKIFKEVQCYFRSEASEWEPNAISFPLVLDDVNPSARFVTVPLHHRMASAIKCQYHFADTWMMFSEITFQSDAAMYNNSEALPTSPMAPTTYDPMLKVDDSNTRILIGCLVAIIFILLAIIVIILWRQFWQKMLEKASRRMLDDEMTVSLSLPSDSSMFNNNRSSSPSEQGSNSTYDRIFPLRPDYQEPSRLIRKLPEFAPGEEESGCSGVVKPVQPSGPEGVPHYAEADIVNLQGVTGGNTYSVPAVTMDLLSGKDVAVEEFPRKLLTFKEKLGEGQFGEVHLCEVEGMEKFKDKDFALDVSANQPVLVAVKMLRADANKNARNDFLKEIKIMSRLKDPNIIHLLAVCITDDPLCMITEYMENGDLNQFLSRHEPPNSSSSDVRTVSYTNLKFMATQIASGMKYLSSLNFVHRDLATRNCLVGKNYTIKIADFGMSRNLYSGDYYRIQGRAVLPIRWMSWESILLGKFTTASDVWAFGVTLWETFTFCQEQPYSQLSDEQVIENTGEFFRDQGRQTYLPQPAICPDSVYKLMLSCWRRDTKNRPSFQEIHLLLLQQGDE

[5] = molecular target: T3, Homeodomain-interacting protein kinase 4 (Homo sapiens) (UniProt Q8NE63); experiment: HIPK4 Invitrogen selectivity data (BI); details: Compound concentration 3.0 uM
T3 sequence (whole entry): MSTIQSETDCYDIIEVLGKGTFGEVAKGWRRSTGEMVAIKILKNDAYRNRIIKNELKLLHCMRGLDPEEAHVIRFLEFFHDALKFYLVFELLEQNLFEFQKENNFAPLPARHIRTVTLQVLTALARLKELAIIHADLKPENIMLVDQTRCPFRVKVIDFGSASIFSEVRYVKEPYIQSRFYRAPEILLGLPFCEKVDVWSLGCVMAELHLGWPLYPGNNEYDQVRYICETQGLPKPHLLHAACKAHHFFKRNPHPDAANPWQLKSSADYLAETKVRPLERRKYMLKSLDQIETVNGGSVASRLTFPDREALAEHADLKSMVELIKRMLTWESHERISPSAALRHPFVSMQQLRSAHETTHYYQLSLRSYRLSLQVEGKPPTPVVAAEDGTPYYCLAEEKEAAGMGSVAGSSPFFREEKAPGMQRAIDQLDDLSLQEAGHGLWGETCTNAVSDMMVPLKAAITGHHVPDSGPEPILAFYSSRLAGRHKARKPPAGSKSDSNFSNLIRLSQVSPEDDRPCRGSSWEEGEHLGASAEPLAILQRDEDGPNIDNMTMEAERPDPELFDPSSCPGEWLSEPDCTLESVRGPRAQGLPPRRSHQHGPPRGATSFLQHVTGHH

[6] = molecular target: Mitogen-activated protein kinase kinase kinase kinase 4 (Homo sapiens) (UniProt O95819); experiment: MAP4K4 Invitrogen selectivity data (BI); details: Compound concentration 3.0 uM
Sequence of Mitogen-activated protein kinase kinase kinase kinase 4 (Homo sapiens) (O95819 2-1239 limits assumed): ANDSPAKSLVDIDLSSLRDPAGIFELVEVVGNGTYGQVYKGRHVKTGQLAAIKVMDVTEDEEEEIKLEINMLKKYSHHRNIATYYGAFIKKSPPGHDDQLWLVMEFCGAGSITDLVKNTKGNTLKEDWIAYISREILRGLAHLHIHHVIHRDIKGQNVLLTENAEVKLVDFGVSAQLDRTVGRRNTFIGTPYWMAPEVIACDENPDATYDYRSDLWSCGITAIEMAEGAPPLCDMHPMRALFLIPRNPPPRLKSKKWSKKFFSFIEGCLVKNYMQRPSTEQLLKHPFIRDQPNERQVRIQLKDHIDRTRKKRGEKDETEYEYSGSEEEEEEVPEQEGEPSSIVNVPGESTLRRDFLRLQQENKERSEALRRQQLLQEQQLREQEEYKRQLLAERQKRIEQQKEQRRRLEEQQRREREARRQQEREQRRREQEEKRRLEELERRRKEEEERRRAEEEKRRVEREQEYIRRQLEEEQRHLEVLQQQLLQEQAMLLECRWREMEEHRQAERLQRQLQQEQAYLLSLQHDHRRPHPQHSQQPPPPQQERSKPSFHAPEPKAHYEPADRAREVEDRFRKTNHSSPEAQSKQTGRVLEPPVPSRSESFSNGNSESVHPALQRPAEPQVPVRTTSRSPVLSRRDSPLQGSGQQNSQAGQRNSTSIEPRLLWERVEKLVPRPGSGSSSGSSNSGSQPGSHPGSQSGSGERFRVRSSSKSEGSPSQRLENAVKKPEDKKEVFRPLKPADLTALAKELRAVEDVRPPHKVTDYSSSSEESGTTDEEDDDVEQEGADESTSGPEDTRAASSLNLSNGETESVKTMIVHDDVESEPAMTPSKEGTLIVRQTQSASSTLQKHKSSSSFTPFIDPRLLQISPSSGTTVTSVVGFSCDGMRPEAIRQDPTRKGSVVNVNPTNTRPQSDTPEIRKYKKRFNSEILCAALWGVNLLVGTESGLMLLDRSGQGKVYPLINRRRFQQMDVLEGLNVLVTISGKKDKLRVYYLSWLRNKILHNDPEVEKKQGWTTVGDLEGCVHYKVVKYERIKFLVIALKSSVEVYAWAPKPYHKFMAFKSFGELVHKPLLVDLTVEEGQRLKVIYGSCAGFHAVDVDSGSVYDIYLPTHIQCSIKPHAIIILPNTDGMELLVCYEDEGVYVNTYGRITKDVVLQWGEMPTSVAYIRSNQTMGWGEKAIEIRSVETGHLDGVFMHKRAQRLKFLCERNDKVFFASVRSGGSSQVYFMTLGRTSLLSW

[7] = molecular target: Serine/threonine-protein kinase PAK 1 (Homo sapiens) (UniProt Q13153); experiment: PAK1 Invitrogen selectivity data (BI); details: Compound concentration 3.0 uM
Sequence of Serine/threonine-protein kinase PAK 1 (Homo sapiens) (Q13153 whole entry): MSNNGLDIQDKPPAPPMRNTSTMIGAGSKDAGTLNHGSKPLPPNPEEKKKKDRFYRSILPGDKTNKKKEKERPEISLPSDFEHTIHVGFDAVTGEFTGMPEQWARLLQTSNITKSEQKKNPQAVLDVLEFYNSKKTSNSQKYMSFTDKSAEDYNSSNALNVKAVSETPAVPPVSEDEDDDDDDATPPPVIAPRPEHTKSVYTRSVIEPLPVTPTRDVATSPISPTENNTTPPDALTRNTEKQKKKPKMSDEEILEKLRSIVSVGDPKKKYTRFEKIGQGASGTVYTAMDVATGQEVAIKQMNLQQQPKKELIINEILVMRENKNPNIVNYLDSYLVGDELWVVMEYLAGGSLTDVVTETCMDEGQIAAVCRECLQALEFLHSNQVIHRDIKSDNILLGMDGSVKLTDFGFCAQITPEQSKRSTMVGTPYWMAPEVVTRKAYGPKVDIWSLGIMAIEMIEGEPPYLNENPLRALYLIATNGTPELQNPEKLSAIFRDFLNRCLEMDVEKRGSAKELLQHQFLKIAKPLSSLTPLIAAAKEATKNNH

[8] = molecular target: Wee1-like protein kinase (Homo sapiens) (UniProt P30291); experiment: WEE1 Invitrogen selectivity data (BI); details: Compound concentration 3.0 uM
Sequence of Wee1-like protein kinase (Homo sapiens) (P30291 whole entry, looked up): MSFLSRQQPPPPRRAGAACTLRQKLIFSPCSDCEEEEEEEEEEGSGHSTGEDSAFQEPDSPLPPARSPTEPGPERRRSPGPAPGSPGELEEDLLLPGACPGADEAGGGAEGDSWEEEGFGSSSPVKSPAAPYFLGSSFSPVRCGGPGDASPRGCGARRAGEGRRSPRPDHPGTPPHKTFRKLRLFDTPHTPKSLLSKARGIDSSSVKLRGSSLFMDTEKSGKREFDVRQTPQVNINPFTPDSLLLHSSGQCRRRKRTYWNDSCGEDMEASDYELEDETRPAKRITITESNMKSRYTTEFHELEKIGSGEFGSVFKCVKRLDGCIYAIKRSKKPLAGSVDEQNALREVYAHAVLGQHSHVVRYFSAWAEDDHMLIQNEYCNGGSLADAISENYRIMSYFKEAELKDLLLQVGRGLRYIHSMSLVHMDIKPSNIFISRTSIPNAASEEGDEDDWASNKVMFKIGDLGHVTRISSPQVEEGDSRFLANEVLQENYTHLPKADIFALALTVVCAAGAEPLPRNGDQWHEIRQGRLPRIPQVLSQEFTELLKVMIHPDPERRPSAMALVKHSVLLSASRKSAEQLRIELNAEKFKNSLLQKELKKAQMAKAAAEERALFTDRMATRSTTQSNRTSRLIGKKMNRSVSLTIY

Measured: residual activity

CN(C)C(=O)Cn1cc(-c2nc(C3(c4ccc(-c5cnc(N)nc5)cc4)CC3)no2)cn1 [BI 0153]
inactive: [1] 100%

CN(C)C(=O)Cn1cc(-c2nc([C@@](C)(c3ccc(-c4cnc(N)nc4)cc3)C3CC3)no2)cn1 [BI 665915]
inactive: [2] 102% | [3] 94% | [4] 96% | [5] 98.5% | [6] 96.5% | [7] 96% | [8] 100% | [1] 85%

Reference: ChEMBL document CHEMBL4507276 (2021)
